Measurements taken from patent US4536335A, “Carbapenem antibiotics” (Bristol-Myers Company, priority 1983, dated 1985).
Converted amounts (≈) assume the structure as drawn.

What was measured:
[1] = system: S. aureus A-9606 (Pen-res.); assay: In vitro MIC, tube dilution; assay type: cell-based; conditions: Staphylococcus aureus, Nutrient Broth, overnight incubation at 37° C., additional data table, read-out: MIC S. aureus (Pen-res.) A-9606
[2] = system: P. mirabilis A-9900; assay: In vitro MIC, tube dilution; assay type: cell-based; conditions: Proteus mirabilis, A9900, tube dilution, Nutrient Broth, overnight incubation at 37° C.; additional data table
[3] = system: P. morganii A15153; assay: In vitro MIC, tube dilution; assay type: cell-based; conditions: Morganella morganii, A15153, tube dilution, Nutrient Broth, overnight incubation at 37° C.; additional data table; read-out: MIC M. morganii A15153
[4] = system: E. cloacae A-9656; assay: In vitro MIC, tube dilution; assay type: cell-based; conditions: Enterobacter cloacae, A9656, tube dilution, Nutrient Broth, overnight incubation at 37° C.; additional data table
[5] = system: P. aeruginosa A21213; assay: In vitro MIC, tube dilution; assay type: cell-based; conditions: Pseudomonas aeruginosa, A21213, tube dilution, Nutrient Broth, overnight incubation at 37° C.; additional data table
[6] = system: P. aeruginosa A-9843a; assay: Protective effect in the intramuscular treatment of infected mice (PD50); assay type: in vivo; conditions: Pseudomonas aeruginosa, A9843A, im, read-out: PD50/treatment, P. aeruginosa A9843A
Procedure: The PD50 (dose in mg/kg required to give protection to 50% of the infected mice) is indicated.
Treatment Schedule: Mice were treated i.m. with drugs 0 and 2 hours post-infection; 5 mice per dose were used for each test
*For compound of Ex. 2, mice were infected i.p. with 2 × 10^9
compounds of Ex. 4 and 5, mice were infected i.p. with ~9 ×
were treated i.m. with drugs 0 and 2 h postinfection.

[7] = Blood levels in mice after intramuscular administration; assay type: in vivo; conditions: mouse, blood, im, 20 mg/kg, intramuscular dose of 20 mg/kg
Source text: Compounds were solubilized in 0.1 M phosphate buffer pH 7. Values are fro
a single test; 4 mice used per compound.
*t1/2 refers to halflife in minutes
**AUC refers to the area under the blood concentrationtime curve
Also shown is the urinary recovery in the mice.
Compounds were solubilized in 0.1 M phosphate buffer, pH 7.
Values based on a single test; 4 mice per compound.
*T1/2 refers to halflife in minutes

What does the source list for `C[C@@H](O)[C@H]1C(=O)N2C(C(=O)[O-])=C(SCC[N+]3(C)CCN(C)CC3)C[C@H]12` [Example 4, (5R,6S)3-[2-(1,4-dimethyl-1-piperazinium)-ethylthio]-6-[1-(R)-hydroxyethyl]-7-oxo-1-azabicyclo-[3.2.0]hept-2-ene-2-carboxylate]?
MIC [1]: 0.06 µg/mL (≈ 0.162 µM); MIC [2]: 0.25 µg/mL (≈ 0.677 µM); MIC [3]: 1 µg/mL (≈ 2.71 µM); MIC [4]: 2 µg/mL (≈ 5.41 µM); MIC [5]: 1 µg/mL (≈ 2.71 µM); ED50 [6]: 2.7 mg/kg; Cmax [7]: 17300 ng/mL; AUC ([7]; read-out: Blood AUC): 7600 ng·h/mL; half-life ([7]; read-out: Blood T1/2): 12 min
